In patent publication US8158589B2, “Peptides with the capacity to bind to transforming growth factor β1 (TGF-β1)” (Proyecto Biomedicine Cima, S.L., priority 2003, dated 2012):
Ends that are not written are not given here.

Molecular target: TGF-β1 (Homo sapiens, UniProt P01137)
Experiment: α-SMA expression induced by TGF-β1 in IMR-90 lung fibroblasts, western blot
Assay type: cell-based
Design: purchased R&D Systems; host or cells: added to IMR-90 human lung fibroblasts
Conditions: IMR-90 cells, 5 ng/ml TGF-β1, peptide 100 μg/ml, 24 hours
Experimental: IMR-90 human lung fibroblasts (ATCC, Manassas, Va.) were cultured in EMEM medium (Cambrex, Belgium) supplemented with 10% fetal bovine serum (FBS), 1 mM sodium pyruvate, 0.1 mM nonessential amino acids, 100 U/ml penicillin and 100 μg/ml streptomycin (Gibco BRL, UK). For experiments, 6×10^4 cells/well were cultured in 6-well plates in 2 ml of medium and when they were 80% confluent, medium was replaced with serum-free EMEM for 48 h to induce quiescence. TGF-β1 (5 ng/ml) and P17 (100 μg/ml) were co-incubated for 90 min at 37° C. to allow binding of both molecules before addition to cell cultures. Quiescent cells were then stimulated with TGF-β1 and/or P17 for up to 6 or 24 h. After these incubation periods, fibroblasts were harvested for gene and protein analysis, respectively.
To assess alpha-Smooth Muscle Actin (αSMA) expression, IMR-90 fibroblasts were lysed with RIPA buffer containing 10 U/ml leupeptin, 10 U/ml pepstatin, 1 mM phenylmethanesulfonylfluoride (PMSF), 1 mM Na3VO4 and 1 mM NaF. […] Membranes were analyzed for expression of αSMA protein using anti-αSMA monoclonal antibody (Sigma-Aldrich) at a dilution of 1:2000 and horseradish peroxidase-labeled anti-mouse IgG (Sigma-Aldrich). Expression of actin was detected using anti-actin monoclonal antibody (Sigma-Aldrich) (1:2000 dilution) and horseradish peroxidase-labeled anti-rabbit IgG (Sigma-Aldrich). […]

TGF-β1, sequence (P01137 279-390 limits assumed): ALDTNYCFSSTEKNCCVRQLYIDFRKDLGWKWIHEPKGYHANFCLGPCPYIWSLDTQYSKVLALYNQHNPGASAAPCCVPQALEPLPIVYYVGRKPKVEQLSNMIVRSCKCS

KRIWFIPRSSWYERA [SEQ ID NO: 17, KRIWFIPRSSWYERA]
α-SMA expression induced by TGF-β1: inhibited
